Reference: paper PMC11191877, “Discovery of new Schiff bases of the disalicylic acid scaffold as DNA gyrase and topoisomerase IV inhibitors endowed with antibacterial properties” (Frontiers in Chemistry, 2024)
≈ marks a conversion by molar mass, not a printed value. One block for each compound: values may come before it.

Key:
[1] = system: E. Coli; set-up: method as in Shi et al., 2007; details: ref Shi et al., 2007; cited from earlier work
[2] = system: B. subtilis; set-up: method as in Shi et al., 2007; details: ref Shi et al., 2007; cited from earlier work
[3] = system: P. fluorescence; set-up: method as in Shi et al., 2007; details: ref Shi et al., 2007; cited from earlier work
[4] = system: Candida albicans; test: Modified Kirby-Bauer disc diffusion (antifungal); assay type: cell-based; details: Candida albicans (fungi)
Description: (§1) The antimicrobial activity of compounds 5a-k was assessed using a modified Kirby-Bauer disc diffusion method ([Alkhaldi et al., 2019]; [Al-Wahaibi et al., 2021b]; [Manso et al., 2021]; [Ecevit et al., 2022]). […] Ciprofloxacin was used as a reference medication. […] Compounds 5f-k had promising antibacterial action against Gram-positive and Gram-negative bacteria, ranging from 75% to 115% of typical ciprofloxacin levels.
(§2) In addition, the synthesized compounds 5a-k were evaluated for their antifungal activity against A. flavus and C. albicans, with Fluconazole as a reference medication (Table 1). […]
(§3) incubated at 35-37 °C for 24-48 hours and yeast as Candida albicans (ATCC 7102) incubated at 30 °C for 24-48 hours and, then the diameters of the inhibition zones were measured in millimeters. Standard discs of ciprofloxacin (Antibacterial agent), Fluconazole (Antifungal agent) served as positive controls for antimicrobial activity but filter discs impregnated with 10 µl of solvent (distilled water, chloroform, DMSO) were used as a negative control. Blank paper disks (Schleicher & Schuell, Spain) with a diameter of 8.0 mm were impregnated 10µ of tested concentration of the stock solutions. When a filter paper disc impregnated with a tested chemical is placed on agar the chemical will diffuse from the disc into the agar. This diffusion will place the chemical in the agar only around the disc. The solubility of the chemical and its molecular size will determine the size of the area of chemical infiltration around the disc. If an organism is placed on the agar it will not grow in the area around the disc if it is susceptible to the chemical. This area of no growth around the disc is known as a “Zone of inhibition” or" Clear zone". For the disc diffusion, the zone diameters were measured with slipping calipers of the National Committee for Clinical Laboratory […]
(§4) Agar-based methods such as E-test and disk diffusion can be good alternatives because they are simpler and faster than broth-based methods. […]

[5] = system: Staph. aureus; test: Modified Kirby-Bauer disc diffusion; assay type: cell-based, Staphylococcus aureus; details: for Inhibition zone diameter: Staph. aureus (G+)
Description: as §1, with “levels. […]” for “levels.”
as §3, §4

[6] = system: Pseudomonas aeruginosa; test: Modified Kirby-Bauer disc diffusion; assay type: cell-based; details: Pseudomonas aeruginosa (G−)
Description: as §1, with “levels. […]” for “levels.”
as §3, §4

[7] = system: Bacillus subtilis; test: Modified Kirby-Bauer disc diffusion; assay type: cell-based; details: Bacillus subtilis (G+)
Description: as §1, with “levels. […]” for “levels.”
as §3, §4

[8] = system: Escherichia Coli; test: Modified Kirby-Bauer disc diffusion; assay type: cell-based; details: Escherichia Coli (G−)
Description: as §1, with “levels. […]” for “levels.”
as §3, §4

[9] = system: Aspergillus flavus; test: Modified Kirby-Bauer disc diffusion (antifungal); assay type: cell-based; details: Aspergillus flavus (fungi)
Description: as §1, §2
Standard discs of ciprofloxacin (Antibacterial agent), Fluconazole (Antifungal agent) served as positive controls for antimicrobial activity but filter discs impregnated with 10 µl of solvent (distilled water, chloroform, DMSO) were used as a negative control. Blank paper disks (Schleicher & Schuell, Spain) with a diameter of 8.0 mm were impregnated 10µ of tested concentration of the stock solutions. When a filter paper disc impregnated with a tested chemical is placed on agar the chemical will diffuse from the disc into the agar. This diffusion will place the chemical in the agar only around the disc. The solubility of the chemical and its molecular size will determine the size of the area of chemical infiltration around the disc. If an organism is placed on the agar it will not grow in the area around the disc if it is susceptible to the chemical. This area of no growth around the disc is known as a “Zone of inhibition” or" Clear zone". For the disc diffusion, the zone diameters were measured with slipping calipers of the National Committee for Clinical Laboratory […]
as §4

[10] = system: M. tuberculosis H37Rv; set-up: method as in Abdu-Allah et al., 2017; details: ref Abdu-Allah et al., 2017; cited from earlier work
[11] = system: mycobacterium; set-up: method as in Abdu-Allah et al., 2017; details: nutrition starvation paradigm, 10 μg/mL; ref Abdu-Allah et al., 2017; cited from earlier work
[12] = system: DNA methyltransferases (DNMTs); set-up: method as in Leroy et al., 2019; details: ref Leroy et al., 2019; cited from earlier work
[13] = system: E. coli b-Ketoacyl-acyl carrier protein synthase III (ecKAS III); set-up: method as in Cheng et al., 2010; details: ref Cheng et al., 2010; cited from earlier work
[14] = system: Pseudomonas aeruginosa; test: MIC, twofold serial dilution, 96-well microtiter plate; assay type: cell-based; details: Pseudomonas aeruginosa (G−); read-out: Minimum inhibitory concentration (MIC)
Description: (§5) The antibacterial activity of compounds 5f, 5h, 5i, and 5k were evaluated using a twofold serial dilution method ([Parasa et al., 2011]), with ciprofloxacin as the reference compound. The MIC values for certain compounds were obtained through dose-response experiments. The stated values are based on a minimum of two independent experiments, with three replicates per concentration in each experiment. The experimental details can be found in Appendix A (Supplementary Material). […]
(§6) 4.2.2. Minimum inhibitory concentration assay
(§7) In 96-well microtiter plates and […] of fresh bacterial culture of a single McFarland unit overnight, a double serial dilution of each compound […] in sterile standard saline were prepared to every single source well. Ciprofloxacin antibiotic (5 mg / mL - 1) and normal saline were included as standard reference in each assay. The plates were incubated at 37 0C overnight. As an indicator of bacterial growth, […] of p-iodonitrotetrazolium violet (INT) was added to each well and incubated at 37 0C for 30 […]
(§8) min. MIC values are recorded as the lowest concentration of the extract that completely inhibited bacterial growth that is clear well. The colorless tetrazolidium salt acts as an electron accepter and is reduced to a red colored formazan product by biological activity organisms. Where bacterial growth was inhibited, the solution in the well remained clear after incubation with INT. […]
(§9) SybrGOLD in T10 buffer (10 mM Tris HCl with pH 8.0 and 1 mM EDTA) was added. […]

[15] = system: Staphylococcus aureus; test: as above; assay type: cell-based; details: Staphylococcus aureus (G+); read-out: Minimum inhibitory concentration (MIC)
Description: as §5, §6, §7, §8, §9

[16] = system: Bacillus subtilis; test: as above; assay type: cell-based; details: Bacillus subtilis (G+); read-out: Minimum inhibitory concentration (MIC)
Description: as §5, §6, §7, §8, §9

[17] = system: Escherichia Coli; test: as above; assay type: cell-based; details: Escherichia coli (G−); read-out: Minimum inhibitory concentration (MIC)
Description: as §5, §6, §7, §8, §9

[18] = target: S. aureus topoisomerase IV; details: read-out: IC50 S. aureus topoisomerase IV; internal standard value stated in the supplementary method; cited from earlier work
[19] = system: Gram-positive and Gram-negative bacteria; test: Disc diffusion, activity relative to ciprofloxacin over the bacterial panel; assay type: cell-based; details: Gram-negative strains
Description: as §1, with “levels. […]” for “levels.”
incubated at 35-37 °C for 24-48 hours and yeast as Candida albicans (ATCC 7102) incubated at 30 °C for 24-48 hours and, then the diameters of the inhibition zones were measured in millimeters. Standard discs of ciprofloxacin (Antibacterial agent), Fluconazole (Antifungal agent) served as positive controls for antimicrobial activity but filter discs impregnated with 10 µl of solvent (distilled water, chloroform, DMSO) were used as a negative control. Blank paper disks (Schleicher & Schuell, Spain) with a diameter of 8.0 mm were impregnated 10µ of tested concentration of the stock solutions. When a filter paper disc impregnated with a tested chemical is placed on agar the chemical will diffuse from the disc into the agar. This diffusion will place the chemical in the agar only around the disc. […] For the disc diffusion, the zone diameters were measured with slipping calipers of the National Committee for Clinical Laboratory […]

Compound: NC[C@H]1O[C@H](O[C@H]2[C@H](O)[C@@H](O[C@H]3O[C@H](CO)[C@@H](O)[C@H](N)[C@H]3O)[C@H](N)C[C@@H]2N)[C@H](O)[C@@H](O)[C@@H]1O [Kanamycin]
MIC [1]: 3.9 mg/L (≈ 8.05 µM) | MIC [2]: 0.39 mg/L (≈ 0.805 µM) | MIC [3]: 3.9 mg/L (≈ 8.05 µM)

Compound: N'-((E)-Benzylidene)-4-(4-(2-((Z)-benzylidene)hydrazine-1-carbonyl)-3-hydroxy benzyl)-2-hydroxybenzohydrazide [Compound 5a]
Inhibition zone diameter [4]: 0.0 mm/mg Sample | Inhibition zone diameter [5]: 25 mm/mg Sample | Inhibition zone diameter [6]: 21 mm/mg Sample | Inhibition zone diameter [7]: 21 mm/mg Sample | Inhibition zone diameter [8]: 24 mm/mg Sample | Inhibition zone diameter [9]: 0.0 mm/mg Sample

Compound: N'-((E)-4-Bromobenzylidene)-4-(4-(2-((Z)-4-bromobenzylidene)hydrazine-1-carbonyl)-3-hydroxybenzyl)-2-hydroxybenzohydrazide [Compound 5d]
Inhibition zone diameter [4]: 10 mm/mg Sample | Inhibition zone diameter [5]: 31 mm/mg Sample | Inhibition zone diameter [6]: 26 mm/mg Sample | Inhibition zone diameter [7]: 28 mm/mg Sample | Inhibition zone diameter [8]: 30 mm/mg Sample | Inhibition zone diameter [9]: 0.0 mm/mg Sample

Compound: CC(C/N=C/c1cc(Cl)ccc1O)C/N=C/c1cc(Cl)ccc1O [II]
MIC [1]: 4.9 mg/L (≈ 13.4 µM) | MIC [2]: 1.8 mg/L (≈ 4.93 µM) | MIC [3]: 3.6 mg/L (≈ 9.86 µM)

Compound: O=C(N/N=C1\C(=O)N(Cc2ccc(Cl)cc2)c2ccccc21)c1cc(-n2cc(-c3ccccc3)nn2)ccc1O [III]
MIC [10]: 0.39 mg/L (≈ 0.71 µM) | reduction of bacterial count [11]: 2.4 logs

Compound: N'-((E)-2-Chlorobenzylidene)-4-(4-(2-((Z)-2-chlorobenzylidene)hydrazine-1-carbonyl)-3-hydroxybenzyl)-2-hydroxybenzohydrazide [Compound 5e]
Inhibition zone diameter [4]: 12 mm/mg Sample | Inhibition zone diameter [5]: 30 mm/mg Sample | Inhibition zone diameter [6]: 28 mm/mg Sample | Inhibition zone diameter [7]: 27 mm/mg Sample | Inhibition zone diameter [8]: 28 mm/mg Sample | Inhibition zone diameter [9]: 0.0 mm/mg Sample

Compound: O=C(O)c1cc(Cc2ccc(O)c(C(=O)O)c2)ccc1O [NSC 14778, disalicylic acid methylene]
inhibitory activity on DNMTs [12]: within the micromolar range

Compound: N'-((E)-4-Chlorobenzylidene)-4-(4-(2-((Z)-4-chlorobenzylidene)hydrazine-1-carbonyl)-3-hydroxybenzyl)-2-hydroxybenzohydrazide [Compound 5b]
Inhibition zone diameter [4]: 7 mm/mg Sample | Inhibition zone diameter [5]: 27 mm/mg Sample | Inhibition zone diameter [6]: 26 mm/mg Sample | Inhibition zone diameter [7]: 26 mm/mg Sample | Inhibition zone diameter [8]: 26 mm/mg Sample | Inhibition zone diameter [9]: 0.0 mm/mg Sample

Compound: N'-((E)-4-Methoxybenzylidene)-4-(4-(2-((Z)-4-methoxybenzylidene)hydrazine-1-carbonyl)-3-hydroxybenzyl)-2-hydroxybenzohydrazide [Compound 5j]
Inhibition zone diameter [4]: 0.0 mm/mg Sample | Inhibition zone diameter [5]: 33 mm/mg Sample | Inhibition zone diameter [6]: 30 mm/mg Sample | Inhibition zone diameter [7]: 31 mm/mg Sample | Inhibition zone diameter [8]: 30 mm/mg Sample | Inhibition zone diameter [9]: 0.0 mm/mg Sample

Compound: CC(CNC(=O)c1ccccc1O)/N=C/c1cc(Cl)cc(Cl)c1O (centres unmarked) [IV]
inhibitory activity against ecKAS III [13]: potent inhibitory activity

Compound: N'-((E)-4-Nitrobenzylidene)-4-(4-(2-((Z)-4-nitrobenzylidene)hydrazine-1-carbonyl)-3-hydroxybenzyl)-2-hydroxybenzohydrazide [Compound 5c]
Inhibition zone diameter [4]: 11 mm/mg Sample | Inhibition zone diameter [5]: 27 mm/mg Sample | Inhibition zone diameter [6]: 25 mm/mg Sample | Inhibition zone diameter [7]: 26 mm/mg Sample | Inhibition zone diameter [8]: 27 mm/mg Sample | Inhibition zone diameter [9]: 0.0 mm/mg Sample

MIC [14]: 0.06 mg/L (≈ 0.181 µM) | MIC [15]: 0.03 mg/L (≈ 0.0905 µM) | MIC [16]: 0.01 mg/L (≈ 0.0302 µM) | MIC [17]: 0.06 mg/L (≈ 0.181 µM)
Compound: O=C(O)c1cn(C2CC2)c2cc(N3CCNCC3)c(F)cc2c1=O [Ciprofloxacin, reference compound]
Inhibition zone diameter [5]: 40 mm/mg Sample | Inhibition zone diameter [6]: 40 mm/mg Sample | Inhibition zone diameter [7]: 40 mm/mg Sample | Inhibition zone diameter [8]: 40 mm/mg Sample

Compound: OC(Cn1cncn1)(Cn1cncn1)c1ccc(F)cc1F [Fluconazole, reference compound]
Inhibition zone diameter [4]: 40 mm/mg Sample | Inhibition zone diameter [9]: 40 mm/mg Sample

Compound: CO[C@@H]1[C@@H](OC(N)=O)[C@@H](O)[C@H](Oc2ccc3c(O)c(NC(=O)c4ccc(O)c(CC=C(C)C)c4)c(=O)oc3c2C)OC1(C)C [Novobiocin]
IC50 [18]: 26.7 µM

Compound: N'-((E)-3-Chlorobenzylidene)-4-(4-(2-((Z)-3-chlorobenzylidene)hydrazine-1-carbonyl)-3-hydroxybenzyl)-2-hydroxybenzohydrazide [Compound 5g]
Inhibition zone diameter [4]: 0.0 mm/mg Sample | activity compared to ciprofloxacin ([5]; S. aureus): 88% | Inhibition zone diameter [5]: 35 mm/mg Sample | Inhibition zone diameter [6]: 30 mm/mg Sample | Inhibition zone diameter [7]: 33 mm/mg Sample | Inhibition zone diameter [8]: 30 mm/mg Sample | Inhibition zone diameter [9]: 0.0 mm/mg Sample | activity of ciprofloxacin [19]: 75%
